# Results: US10208033B2, “β-carboline, dihydro-β-carboline and tetrahydro-β-carboline alkaloid derivatives and preparation methods same and use in aspects of preventing and treating plant viruses, fungicides and insecticides” (NANKAI UNIVERSITY, priority 2013, dated 2019)
# Key:
# [1] = system: tobacco mosaic virus (TMV); assay: Anti-TMV in vitro effect (half-leaf soaking); assay type: cell-based, tobacco mosaic virus (host Nicotiana tabacum L.cv.Xanthi NN)
# [2] = system: tobacco mosaic virus (TMV); assay: Anti-TMV in vivo inactivation; set-up: species or system tobacco mosaic virus (host Nicotiana tabacum L.cv.Xanthi NN)
# [3] = system: tobacco mosaic virus (TMV); assay: Anti-TMV in vivo therapeutic effect; set-up: species or system tobacco mosaic virus (host Nicotiana tabacum L.cv.Xanthi NN)
# [4] = system: tobacco mosaic virus (TMV); assay: Anti-TMV in vivo protective effect; set-up: species or system tobacco mosaic virus (host Nicotiana tabacum L.cv.Xanthi NN)
# cucumber fusarium wilt = assay: Fungicidal (bactericidal) activity in vitro, PDA colony diameter; assay type: cell-based; settings: 50 mg/kg
# Cercospora arachidicola = assay: as above; assay type: cell-based; settings: 50 mg/kg
# Macrophoma kawatsukai = assay: as above; assay type: cell-based; settings: 50 mg/kg
# Alternaria solani = assay: as above; assay type: cell-based; settings: 50 mg/kg
# Fusarium graminearumt = assay: microbe, parasite or virus in culture; assay type: cell-based; settings: 50 mg/kg
# potato late blight = assay: microbe, parasite or virus in culture; assay type: cell-based
# Sclerotinia scleotiorum = assay: Fungicidal (bactericidal) activity in vitro, PDA colony diameter; assay type: cell-based; settings: 50 mg/kg
# Botrytis cinerea = assay: as above; assay type: cell-based; settings: 50 mg/kg
# Rhizoctonia solani = assay: as above; assay type: cell-based; settings: 50 mg/kg
# Phytophthora capsici = assay: as above; assay type: cell-based; settings: 50 mg/kg
# Fusarium fujikuroi = assay: as above; assay type: cell-based; settings: 50 mg/kg
# Rhizoctonia cereali = assay: as above; assay type: cell-based; settings: 50 mg/kg
# Bipolaria maydis = assay: organism not typed; assay type: cell-based; settings: 50 mg/kg
# [5] = system: Colletotrichum orbiculare; assay: Fungicidal (bactericidal) activity in vitro, PDA colony diameter; assay type: cell-based; settings: 50 mg/kg
# armyworms = assay type: in vivo; settings: concentration 600 mg/kg
# cotton bollworms = assay: whole plant or invertebrate; settings: for Cotton bollworm Mortality (%): concentration 600 mg/kg
# Procedure: Experimental method of cotton bollworms: feed and drug mixing method: measure 3 mL of prepared solution and add it to about 27 g of newly prepared feed, thereby obtaining needed concentration through dilution by 10 times.
# mosquito larvae = assay: whole plant or invertebrate; settings: 24 h; for Mosquito larvae Mortality (%): concentration 10 mg/kg
# Summary of the method: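 Early fourth-instar Culex pipiens pallens larvae from an indoor colony, 10 per beaker, exposed to test compound at 5 ppm in water, diluted from a 1000 ppm acetone mother solution. Blank: water containing 0.5 mL test solvent.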
# [6] = system: tobacco mosaic virus (TMV); assay: Anti-TMV activity, overall statements on Table 1; assay type: in vivo, tobacco mosaic virus (host Nicotiana tabacum L.cv.Xanthi NN); settings: 100 μg/mL versus ningnanmycin at 100 μg/mL
# corn borers [7] = settings: concentration 600 mg/kg
# corn borers [8] = assay: whole plant or invertebrate; settings: read-out: Corn borer Mortality (%)
Structure (SMILES),Relative inhibition rate (%) In vitro activity ([1]; treatment dose 100 μg/mL) [%],Relative inhibition rate (%) In vitro activity ([1]; treatment dose 500 μg/mL) [%],Relative inhibition rate (%) In vivo inactivation ([2]; treatment dose 100 μg/mL) [%],Relative inhibition rate (%) In vivo inactivation ([2]; treatment dose 500 μg/mL) [%],Relative inhibition rate (%) In vivo therapy ([3]; treatment dose 100 μg/mL) [%],Relative inhibition rate (%) In vivo therapy ([3]; treatment dose 500 μg/mL) [%],Relative inhibition rate (%) In vivo protection ([4]; treatment dose 100 μg/mL) [%],Relative inhibition rate (%) In vivo protection ([4]; treatment dose 500 μg/mL) [%],Bactericidal activity (%) Cucumber fusarium wilt (cucumber fusarium wilt) [%],Bactericidal activity (%) Cercospora arachidicola (Cercospora arachidicola) [%],Bactericidal activity (%) Macrophoma kawatsukai (Macrophoma kawatsukai) [%],Bactericidal activity (%) Alternaria solani (Alternaria solani) [%],Bactericidal activity (%) Fusarium graminearumt (Fusarium graminearumt) [%],Bactericidal activity (%) potato late blight (potato late blight) [%],Bactericidal activity (%) Sclerotinia scleotiorum (Sclerotinia scleotiorum) [%],Bactericidal activity (%) Botrytis cinerea (Botrytis cinerea) [%],Bactericidal activity (%) Rhizoctonia solani (Rhizoctonia solani) [%],Bactericidal activity (%) Phytophthora capsici (Phytophthora capsici) [%],Armyworm Mortality (%) (armyworms),anti-TMV activity compared with ningnanmycin [6],also measured
"C[C@@H]1N[C@H](C(=O)NNC(=O)C(C)(C)C)Cc2c1[nH]c1ccccc21 [Id-6, (1S, 3S)—N′-tert-valeryl-1-methyl-2,3,4,9-tetrahydropyridino [3,4-b] indol-3-formylhydrazine]",8.9,45.7,12.8,44,14.2,42.1,16.9,47.5,4.5,9.1,42.4,14.3,30.8,26.1,17.3,50.0,5.6,12.1,35,equivalent to the activity of commercial variety ningnanmycin,Bactericidal activity (%) Fusarium fujikuroi (Fusarium fujikuroi): 29.4%; Bactericidal activity (%) Rhizoctonia cereali (Rhizoctonia cereali): 10.8%; Bactericidal activity (%) Bipolaria maydis (Bipolaria maydis): 20.0%; Bactericidal activity (%) Colletotrichum orbiculare [5]: 24.0%; Cotton bollworm Mortality (%) (cotton bollworms): 25%; Mosquito larvae Mortality (%) (mosquito larvae): 65%; Corn borer Mortality (%) (corn borers [7]): 50%
"C[C@@H]1N[C@H](C(=O)NNC(=O)C2CCCC2)Cc2c1[nH]c1ccccc21 [Id-7, (1S, 3S)—N′-(cyclopentyl formyl)-1-methyl-2,3,4,9-tetrahydropyridino [3,4-b] indol-3-formylhydrazine]",22.2,47.2,20.3,42.4,18.6,51.4,26.6,53.9,9.1,9.1,33.3,9.5,15.4,21.7,7.7,50.0,1.4,15.2,40,equivalent to the activity of commercial variety ningnanmycin,Bactericidal activity (%) Fusarium fujikuroi (Fusarium fujikuroi): 29.4%; Bactericidal activity (%) Rhizoctonia cereali (Rhizoctonia cereali): 29.7%; Bactericidal activity (%) Bipolaria maydis (Bipolaria maydis): 28.0%; Bactericidal activity (%) Colletotrichum orbiculare [5]: 16.0%; Cotton bollworm Mortality (%) (cotton bollworms): 30%; Mosquito larvae Mortality (%) (mosquito larvae): 80%; Corn borer Mortality (%) (corn borers [7]): 40%
CC1NCCc2c1[nH]c1ccccc21 (stereo not shown) [Tetrahydroharmane],–,–,–,–,–,–,–,–,–,–,–,–,–,–,–,–,–,–,15,equivalent to the activity of commercial variety ningnanmycin,"inhibition at 100 µg/mL ([1]; Tobacco mosaic virus, treatment dose 100 μg/mL, read-out: Relative inhibition rate (%) In vitro activity): 28.4%; inhibition at 500 µg/mL ([1]; Tobacco mosaic virus, treatment dose 500 μg/mL, read-out: Relative inhibition rate (%) In vitro activity): 63.7%; inhibition at 100 µg/mL ([2]; Tobacco mosaic virus, treatment dose 100 μg/mL, read-out: Relative inhibition rate (%) In vivo inactivation): 23.5%; inhibition at 500 µg/mL ([2]; Tobacco mosaic virus, treatment dose 500 μg/mL, read-out: Relative inhibition rate (%) In vivo inactivation): 64.2%; inhibition at 100 µg/mL ([3]; Tobacco mosaic virus, treatment dose 100 μg/mL, read-out: Relative inhibition rate (%) In vivo therapy): 20.4%; inhibition at 500 µg/mL ([3]; Tobacco mosaic virus, treatment dose 500 μg/mL, read-out: Relative inhibition rate (%) In vivo therapy): 57.2%; inhibition at 100 µg/mL ([4]; Tobacco mosaic virus, treatment dose 100 μg/mL, read-out: Relative inhibition rate (%) In vivo protection): 24.6%; inhibition at 500 µg/mL ([4]; Tobacco mosaic virus, treatment dose 500 μg/mL, read-out: Relative inhibition rate (%) In vivo protection): 59.5%; mortality at 600 mg/kg (cotton bollworms; Helicoverpa armigera, in Gossypium hirsutum, read-out: Cotton bollworm Mortality (%)): 15%; mortality at 10 mg/kg (mosquito larvae; Culex pipiens, read-out: Mosquito larvae Mortality (%)): 30%; mortality at 600 mg/kg (corn borers [8]): 10%"
